Results as given in patent publication US7052834B1, “Tumor suppressor protein involved in death signaling, and diagnostics, therapeutics, and screening based on this protein” (St. Jude Children's Research Hospital, priority 1998, dated 2006).
Peptide text beside a SMILES is read from it. * marks the point of attachment. Cbz = O=C(OCc1ccccc1)*; CH2F = FC*

Key:
NB10 [1] = assay: 5-aza-cytidine treatment: caspase-8 western blot and apoptosis; type: cell-based, human
Source text: (§1) Caspase-8 western blot analysis of cell lysates from the NB8, NB10, and NB14 cell lines with (+) or without (−) 5-aza-2′-deoxycytidine. […] We therefore examined DNA methylation of CASP8 regulatory sequences as an alternative mechanism through which expression could be silenced, as documented for several tumor suppressor genes, such as INK4a, CDKN1, CDKN2, PTEN, MLH1, von Hippel-Lindau, and E-cadherin (Baylin et al., Adv. Cancer Res., 1998, 72:141–196; Belinsky et al., Proc. Natl. Acad. Sci. USA, 1998, 95:11891; Whang et al., Proc.Natl.Acad.Sci.USA,1998, 95:5246–5250; Merlo et al., Nature Medicine, 1995, 1:686–692).
(§2) The role of methylation of CASP8 regulatory sequences was tested by treating NB cells with 5-aza-cytidine, a compound that promotes the demethylation of CpG dinucleotides (Merlo et al., Nature Medicine, 1995, 1:686–692). When cells were treated with 10–50 μM 5-aza-cytidine for 2–3 days, caspase-8 expression was activated in the NB8 and NB11 cell lines, but not NB14 (FIG. 6A).

NB14 = assay: as above; type: cell-based, human; settings: after 10–50 μM for 2–3 days
Source text: as §1, §2

NB8 [2] = assay: as above; type: cell-based, human
Source text: as §1, §2

NB11 = assay: 5-aza-cytidine treatment: caspase-8 western blot; type: cell-based, human; settings: 10–50 μM for 2–3 days
Source text: as §1, §2

neuroblastoma cell lines = assay: Apoptosis after re-establishing caspase-8 expression; type: cell-based, human; settings: cell lines not expressing caspase-8
Source text: The present invention is based, in part, on the surprising discovery that CASP8 is functionally inactivated in greater than 90% of all MYCN amplified neuroblastoma cell lines analyzed. Neuroblastoma is a pediatric solid tumor, and those cases with MYCN amplification have a particularly poor prognosis. […] This discovery is significant in oncology, because cells in which caspase-8 is not expressed are not capable of undergoing apoptosis mediated by death receptors such as Fas and DR3.

NB3 = assay: Doxorubicin-induced apoptosis (TUNEL); type: cell-based, human; settings: 0.1 mM doxorubicin for 48 hrs, percentage of cell death by TUNEL
NB5 = assay: Doxorubicin-induced apoptosis (TUNEL); type: cell-based, human; settings: 0.1 mM doxorubicin for 48 hrs, percentage of cell death by TUNEL
NB7 = assay: Doxorubicin-induced apoptosis (TUNEL); type: cell-based, human
Description: (§3) In order to determine whether exogenous expression of caspase-8 resensitized caspase-8 null NB cells to chemotherapeutic agents, NB7 cells and NB7 cells transduced with pMSCV-Casp8(wt) were treated with doxorubicin. Doxorubicin-induced neuroblastoma apoptosis has previously been linked to the Fas receptor pathway (Fulda et al., Cancer Res., 1997, 57:3823–3829). The NB7 cell line was chosen since it lacks a functional CASP8 gene (FIGS. 4 and 5, Table 2).

NB8 [3] = assay: Doxorubicin-induced apoptosis (TUNEL); type: cell-based, human; settings: 0.1 mM doxorubicin for 48 hrs
NB cell lines = assay: Sensitivity of NB cell lines to doxorubicin-induced apoptosis; type: cell-based, human
Description: as §3

NB10 [4] = assay: Fas mAb-induced apoptosis in cells with programmed caspase-8 expression; type: cell-based, human; settings: zVAD-fmk added prior to programmed expression of caspase-8
Description: (§4) FIGS. 8A, 8B, 8C, 8D, and 8E. Effects of retrovirus expression of caspase-8 in three different NB cell lines that are caspase-8 nulls. […] The caspase-8(DN) product migrates at a higher molecular weight due to an HA-tag attached to its carboxyl-terminus. B, C:Morphology of NB7/Casp8 cells 5 hours after treatment with TNFα and cycloheximide. Membrane blebbing (Nomarski view, B) and condensed chromatin (visualized by DAPI staining, C), characteristics of apoptotic cells, are clearly visible. D:Percentage of cells that are positive for cell surface annexin-V staining, another hallmark of apoptotic cells. The various cell lines and their treatment regimens are shown at the bottom. E: Apoptotic induction by Fas mAb in proliferating NB8 and NB10 cells stably expressing caspase-8 at a low level. Induction measured as percentage of cells that are TUNEL-positive. The various cell lines and their treatment regimens are shown at the bottom.
(§5) Apoptotic assays. Cells were collected for annexin V-FITC staining and FACS analysis after the culture media containing zVAD-fmk was removed and replaced with normal culture medium for 6 hours in NB8 and NB 10. […] Viable cells were determined by light and immunofluorescent microscopy after removal of the zVAD-fmk containing culture medium and incubation at 37° C. for 0.5, 1, 2, 4 and 6 hrs for the pMSCV-Casp 8(wt) and DN transduced NB8 and NB10 cells. […]

NB8 [5] = assay: as above; type: cell-based, human; settings: zVAD-fmk added prior to programmed expression of caspase-8
Description: as §4, §5

TNFR p55 (human) = TNFR p55 (human) (UniProt P19438); assay: cell-based or functional assay
Chain of TNFR p55 (human) (P19438 30-455): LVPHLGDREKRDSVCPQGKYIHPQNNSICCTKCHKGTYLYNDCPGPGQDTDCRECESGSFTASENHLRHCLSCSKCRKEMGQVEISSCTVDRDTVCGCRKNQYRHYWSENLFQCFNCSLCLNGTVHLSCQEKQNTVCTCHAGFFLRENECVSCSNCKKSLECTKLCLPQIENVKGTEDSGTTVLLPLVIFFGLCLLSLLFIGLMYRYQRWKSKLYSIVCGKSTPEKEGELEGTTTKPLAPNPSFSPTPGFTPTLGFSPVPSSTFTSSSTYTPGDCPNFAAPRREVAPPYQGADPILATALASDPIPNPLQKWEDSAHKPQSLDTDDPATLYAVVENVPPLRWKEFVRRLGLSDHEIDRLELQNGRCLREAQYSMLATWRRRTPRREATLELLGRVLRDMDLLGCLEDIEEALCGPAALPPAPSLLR

Question: Nc1ncn([C@@H]2O[C@H](CO)[C@@H](O)[C@H]2O)c(=O)n1 [5-aza-cytidine] was tested. Which caspase-8 expression (NB10 [1]; FIG. 6A) did it give?
Answer: The caspase-8 expression was “results in the expression of caspase-8”.

Question: And the spontaneous apoptosis (NB10 [1]; after 10–50 μM for 2–3 days)?
Answer: Its spontaneous apoptosis is “underwent spontaneous apoptosis”.

Question: What about the spontaneous apoptosis (NB14) of the same molecule?
Answer: The spontaneous apoptosis was “not”.

Question: And the caspase-8 expression (NB8 [2]; 10–50 μM for 2–3 days)?
Answer: Its caspase-8 expression is “activated”.

Question: And the spontaneous apoptosis (NB8 [2]; after 10–50 μM for 2–3 days)?
Answer: The spontaneous apoptosis was “underwent spontaneous apoptosis”.

Question: And the caspase-8 expression (NB11)?
Answer: The caspase-8 expression was “activated”.

Question: What about the “apoptosis when caspase-8 expression is re-established” value (neuroblastoma cell lines) of the same molecule?
Answer: The value was “undergo apoptosis”.

Question: COc1cccc2c1C(=O)c1c(O)c3c(c(O)c1C2=O)C[C@@](O)(C(=O)CO)C[C@@H]3O[C@H]1C[C@H](N)[C@H](O)[C@H](C)O1 [Doxorubicin, doxorubicin] was tested. Which “Doxorubicin-induced Apoptosis” value (NB3) did it give?
Answer: Its value is 52 +/− 4%.

Question: And the “Doxorubicin-induced Apoptosis” value (NB5)?
Answer: Its value is 54 +/− 4.6%.

Question: What about the “Doxorubicin-induced Apoptosis (+caspase-8)” value (NB7; NB7 +caspase-8, 0.1 mM doxorubicin for 48 hrs, TUNEL) of the same molecule?
Answer: The value was 42 +/− 2.6%.

Question: What about the “Doxorubicin-induced Apoptosis” value (NB7; NB7, 0.1 mM doxorubicin for 48 hrs, percentage of cell death by TUNEL) of the same molecule?
Answer: Its value is 24 +/− 3%.

Question: And the “increase in the level of cell death” value (NB7; NB7 cells expressing functional caspase-8 vs parental/pMSCV/pMSCV-Casp8(DN), low levels of doxorubicin)?
Answer: Its value is 70–100%.

Question: What about the “apoptosis after exposure to low levels of doxorubicin” value (NB7; parental NB7 cells and those transduced with pMSCV or pMSCV-Casp8(DN)) of the same molecule?
Answer: Its value is “very limited apoptosis”.

Question: And the “Doxorubicin-induced Apoptosis (+caspase-8)” value (NB8 [3]; NB8 +caspase-8, TUNEL)?
Answer: Its value is 38 +/− 2%.

Question: And the “Doxorubicin-induced Apoptosis” value (NB8 [3]; NB8, percentage of cell death by TUNEL)?
Answer: The value was 18 +/− 2.6%.

Question: And the “sensitization to doxorubicin-induced apoptosis” value (NB cell lines; NB cell lines (e.g., NB16 and NB21) expressing caspase-8)?
Answer: Its value is “more sensitized”.

Question: And the “sensitization to doxorubicin-induced apoptosis” value (NB cell lines; cell lines that do not express caspase-8, regardless of Fas/CD95 status)?
Answer: The value was “not sensitized”.

Question: COC(=O)C[C@H](NC(=O)[C@H](C)NC(=O)[C@@H](NC(=O)OCc1ccccc1)C(C)C)C(=O)CF [zVAD-fmk] (Cbz-Val-Ala-Asp(OMe)-CH2F) was tested. Which “apoptosis induced by agonistic Fas mAb” value (NB10 [4]) did it give?
Answer: The value was “blocked”.

Question: And the “apoptosis induced by agonistic Fas mAb” value (NB8 [5])?
Answer: The value was “blocked”.

Question: How did the apoptosis of NB7 cells lacking caspase-8, five hours after TNF-α/CHX treatment (annexin-V staining) (TNFR p55 (human)) turn out when TNF-α (ligand) was run?
Answer: The apoptosis of NB7 cells lacking caspase-8, five hours after TNF-α/CHX treatment (annexin-V staining) was 5%.

Question: What about the apoptosis of NB7 cells transduced with pMSCV-Casp8(wt), five hours after TNF-α/CHX treatment (DAPI, annexin-V staining) (TNFR p55 (human)) of the same molecule?
Answer: Its apoptosis of NB7 cells transduced with pMSCV-Casp8(wt), five hours after TNF-α/CHX treatment (DAPI, annexin-V staining) is 40%.
